Measurements as given in patent US20260021082A1, “EZH2 INHIBITION THERAPIES FOR THE TREATMENT OF AT-RICH INTERACTIVE DOMAIN-CONTAINING PROTEIN 1A (ARID1A) MUTATED CANCERS” (Constellation Pharmaceuticals, Inc., priority 2022, published 2026).

How the values were obtained:
[1] = test system: ARID1A mutant HT1376 bladder cancer xenografts; experiment: HT1376 xenograft tumor growth inhibition; assay type: in vivo, mice; conditions: ARID1A mutated HT1376 xenograft, 75 mg/kg QD; for tumor growth inhibition (TGI) compared to vehicle: day 27
Procedure: Data represented as mean tumor volume+SEM, with n=5 mice per group for all groups except 150 mg/kg, which had n=3. P-values calculated using 2-way ANOVA up to day 30, ns=p>0.05, *p<0.05. […]
Cell line derived xenograft tumor experiments were performed at WuXi AppTec, Shanghi, China. Patient derived xenograft experiments were performed at Crown BioScience Inc., Taicang Jiangsu Province, China, or Champions Oncology, Rockville, MD, US. All the procedures related to animal handling, care and the treatment in the xenograft studies were performed according to the guidelines approved by the Institutional Animal Care and Use Committee (IACUC) of WuXi AppTec or Crown BioScience Inc. following the guidance of the Association for Assessment and Accreditation of Laboratory Animal Care (AAALAC). The mice were kept in individual ventilation cages at constant temperature and humidity with 3-5 animals in each cage. Mice were checked daily for any effects of tumor growth and/or treatments on normal behavior such as mobility, food and water consumption, body weight gain/loss, eye, and any other abnormal effects. […] Animal body weight was monitored regularly as an indirect measurement of toxicity. Supplemented diet was provided after cell inoculation for all groups to help with body weight maintenance. If an animal lost >15% body weight, their treatments were suspended accordingly then resumed when body weight loss returned to <10%.
The HT1376 and HT1197 bladder cancer cell lines and Karpas-422 lymphoma cell line were expanded in vitro under routine subculturing procedures in the medium recommended by the supplier, harvested while in the exponential growth phase, and counted for tumor inoculation. For HT1376 and Karpas-422 studies, female CB17 SCID mice at 6-8 weeks of age were used for study initiation; for the HT1197 study, female Balb/c nude mice at 6-8 weeks of age were used. Each mouse was inoculated subcutaneously in the right flank with tumor cells in 0.2 ml PBS mixed with Matrigel (BD Biosciences); 5×10^6 cells per injection were used for HT1376 and Karpas-422 cell lines and 1×10^7 cells per injection for HT1197 cells. […] Mice undergoing extended dosing holidays due to body weight loss (>10 days, n=2 mice in the 150 mg/kg Compound 1 HT1376 group only), were censored from the study and not included in the data presented.
Tumor size was measured thrice weekly in two dimensions using a caliper, and the volume was expressed in mm3 using the formula: V=0.5a×b2 where a and b are the long and short diameters of the tumor, respectively. TGI was calculated for each group using the formula: TGI (%)=[1−(Ti−T0)/(Vi−V0)]×100; Ti is the average tumor volume of a treatment group on a certain day, T0 is the average tumor volume of the treatment group on the day of treatment start, Vi is the average tumor volume of the vehicle control group on the same day with Ti, and V0 is the average tumor volume of the vehicle group on the day of treatment start.
To further explore the potential dose dependence of Compound 1 on tumor growth inhibition in vivo, HT1376 xenograft studies were carried out using Compound 1 doses from 10 to 150 mg/kg QD orally once daily (PO, QD). […]

[2] = long-term cell viability assays in vitro, comparison of PRC2 inhibitors; assay type: cell-based
Procedure: (§1) Response of Compound 1 treatment relative to other EZH2, dual EZH1 and EZH2, or EED inhibitors was analyzed in vitro and in vivo.

[3] = pharmacokinetics in the ARID1A mutant HT1376 xenograft mouse model; assay type: in vivo
Procedure: as §1

[4] = CB17 SCID, mouse, in vivo, 75 mg/kg
[5] = Day 1, 75 mg/kg, HT1376 xenograft mouse, plasma

Row | SMILES | AUClast (hg*ng/mL) ([3]; mouse, in vivo, 75 mg/kg) | Cmax ([3]; mouse, in vivo, 75 mg/kg) [ng/mL] | T1/2 ([3]; mouse, in vivo, 75 mg/kg) [h] | Tmax ([3]; mouse, in vivo, 75 mg/kg) [h] | Cmax [3, 4] [ng/mL] | T1/2 [3, 4] [h] | Tmax [3, 4] [h] | AUClast (hg*ng/mL) [3, 5] [hg*ng/mL] | Cmax [3, 5] [ng/mL] | T1/2 [3, 5] [h] | Tmax [3, 5] [h] | tumor growth inhibition (TGI) compared to vehicle [1] [%] | GI50 [2] [nM] | tumor volume course during treatment [1]
1 | COc1cc(C)[nH]c(=O)c1CN1CCc2c(Cl)cc([C@H](OC)C3COC3)c(Cl)c2C1=O [PF-06821497] | 3380 | 3740 | 1.01 | 0.50 |  |  |  |  |  |  |  | 41 | ~5 | 
2 | COc1cc(C)[nH]c(=O)c1CNC(=O)c1c(C)n([C@H](C)C2CCN(CC(F)(F)F)CC2)c2ccccc12 [CPI-1205] | 59900 |  |  |  | 50800 | 1.24 | 0.50 |  |  |  |  | 40 | 574 | 
3 | Cc1cc(C)c(CNC(=O)c2cc(Cl)c3c(c2C)O[C@@](C)([C@H]2CC[C@H](N(C)C)CC2)O3)c(=O)[nH]1 [valemetostat] |  |  |  |  |  |  |  | 7600 | 3090 | 3.00 | 1.33 |  | 18 | did not reach full regression

The next lines start with results.

Row | AUClast (hg*ng/mL) ([3]; mouse, in vivo, 75 mg/kg) | Cmax ([3]; mouse, in vivo, 75 mg/kg) [ng/mL] | T1/2 ([3]; mouse, in vivo, 75 mg/kg) [h] | Tmax ([3]; mouse, in vivo, 75 mg/kg) [h] | Cmax [3, 4] [ng/mL] | T1/2 [3, 4] [h] | Tmax [3, 4] [h] | AUClast (hg*ng/mL) [3, 5] [hg*ng/mL] | Cmax [3, 5] [ng/mL] | T1/2 [3, 5] [h] | Tmax [3, 5] [h] | SMILES | tumor growth inhibition (TGI) compared to vehicle [1] [%] | GI50 [2] [nM] | tumor volume course during treatment [1]
4 | 13100 | 5660 | 1.18 | 1.00 |  |  |  |  |  |  |  | Cc1ncccc1-c1cnc(NCc2c(F)ccc3c2CCO3)n2cnnc12 [MAK683] |  | 73 | 
5 |  |  |  |  |  |  |  | 23200 | 9530 | 1.43 | 0.50 | CCN(c1cc(-c2ccc(CN3CCOCC3)cc2)cc(C(=O)NCc2c(C)cc(C)[nH]c2=O)c1C)C1CCOCC1 [tazemetostat] | 32 | 385 | 
